From PMC9820430, “New Affordable Methods for Large-Scale Isolation of Major Olive Secoiridoids and Systematic Comparative Study of Their Antiproliferative/Cytotoxic Effect on Multiple Cancer Cell Lines of Different Cancer Origins” (International Journal of Molecular Sciences, 2022)
Where two headings read alike, the source gives them in different places. Marks after values point to notes of the source that are not given here.

What was measured:
SK-BR-3 [1] = settings: cited from earlier work
PANC-1 = assay: EdU incorporation cell proliferation assay, 24 h; assay type: cell-based, human; settings: for % Inhibition ± SE of cell proliferation: 24 h at EC50, normalized with the control; for % EdU +ve ± SE (S-phase cells): 24 h treatment at EC50 concentration
Experimental: (§1) For this purpose, ten cancer cell lines (i.e., MDA-MB 231, SK-BR-3, MCF-7, A2058, SK-MEL-28, AGS, HepG-2, PANC-1, H1299 and Hela) originating from breast, melanoma, stomach, hepatic, pancreatic, lung and cervical tumors were analyzed in parallel with control samples (i.e., the same cells treated only with 0.2% (v/v) DMSO). […] Subsequently, the treated cells were allowed to incorporate 5-ethynyl-2′-deoxyuridine (EdU) into replicating DNA according to the protocol described in detail in the Experimental Section. EdU, a thymidine analog, can be incorporated into DNA in vivo and detected later by using copper-catalyzed azide–alkyne cycloaddition (click reaction) without prior DNA denaturation. The pool of cells in the S phase can be then easily detected by fluorescence (FL) microscopy or by flow cytometry by analyzing the incorporation of EdU in replicating DNA of single cells. In this study, after EdU incorporation, the nuclei of the entire cell population were stained with Hoechst and imaged by confocal microscopy (Experimental Section). EdU-positive nuclei, marked by green FL, as well as the total number of nuclei, marked by blue FL, were enumerated by applying the Icy image analysis algorithm on the digital images acquired by confocal microscopy.
(§2) Human cancer cells were plated onto sterile glass coverslips (10-mm diameter, 5161063, ThermoFisher Scientific, Waltham, MA, USA) in 24-well tissue culture plates, at a density 5 times the density of cells seeded in 96-well plate and at a final medium volume of 500 μL. In order to obtain homogeneous plating, 250 μL of the medium was added directly to the wells already containing coverslips. Using a tip perpendicularly, coverslips were pressed in order to ensure their attachment to the bottom of the well. The cells were then seeded by adding 250 μL of single-cell suspension drop by drop following a cross path. Immediately after seeding, the plate was shaken back and forth at least ten times to achieve homogeneous plating. The cells were allowed to adhere overnight (~16 h) at 37 °C and 5% (v/v) CO2. The next day, a volume of 500 μL fresh medium was added to each well and the treatment with OOPs was initiated by adding directly to the wells 2 μL of OOPs from the 500× stock in DMSO and immediately mixed afterward by pipetting. […] Control cells were prepared under the same experimental conditions using DMSO instead of the OOPs’ solutions in DMSO at the same final concentration (0.2% (v/v) DMSO). […] Each condition was performed in duplicate. After treatment with the OOPs, live proliferating mammalian cells were labeled with 5-ethynyl-2’-deoxyuridine (EdU), a nucleoside analog of thymidine, using the Cell proliferation kit III (EdU-FM, PK-CA724-488FM, Promokine, Heidelberg, Germany). More specifically, a 20 μM EdU solution from a 10 mM stock in DMSO was prepared in a fresh culture medium. Culture supernatant was removed from treated cells to leave only 250 μL. An equal volume of 20 μM EdU solution was added and mixed with the medium to obtain a 10 μΜ EdU final concentration. The treated cells were incubated for the desired time of pulse length (2–4 h) under conditions optimal for each cell type depending on each cell line’s doubling time. Following incubation, cells were washed twice with PBS, then fixed with 4% (w/v) paraformaldehyde in PBS for 15 min at room temperature (RT), and subsequently washed twice with 3% (w/v) BSA for 5 min each time. Cells were permeabilized by incubation (20 min, RT, in the dark) with 0.5% (v/v) Triton-X 100 in PBS. Following permeabilization the cells were washed twice with 3% (w/v) BSA in PBS and incubated for 30 min with the reaction cocktail, according to the instructions of the Cell proliferation kit III (EdU-488; FM). After staining for replicating DNA, the cells were washed three times with 3% (w/v) BSA in PBS, and were then incubated (10 min, at RT) with Hoechst 33342 in PBS (1:10.000) to visualize all the nuclei. […]

MDA-MB 231 [2] = assay: EdU incorporation cell proliferation assay, 24 h; assay type: cell-based, human; settings: for % Inhibition ± SE of cell proliferation: 24 h at EC50, normalized with the control; for % EdU +ve ± SE (S-phase cells): 24 h treatment at EC50 concentration
Experimental: as §1, §2

SK-BR-3 [3] = assay: EdU incorporation cell proliferation assay, 24 h; assay type: cell-based, human; settings: for % Inhibition ± SE of cell proliferation: 24 h at EC50, normalized with the control; for % EdU +ve ± SE (S-phase cells): 24 h treatment at EC50 concentration
Experimental: as §1, §2

HepG-2 = assay: EdU incorporation cell proliferation assay, 24 h; assay type: cell-based, human; settings: for % Inhibition ± SE of cell proliferation: 24 h at EC50, normalized with the control; for % EdU +ve ± SE (S-phase cells): 24 h treatment at EC50 concentration
Experimental: as §1, §2

AGS = assay: EdU incorporation cell proliferation assay, 24 h; assay type: cell-based, human; settings: for % Inhibition ± SE of cell proliferation: 24 h at EC50, normalized with the control; for % EdU +ve ± SE (S-phase cells): 24 h treatment at EC50 concentration
Experimental: as §1, §2

SK-MEL-28 = assay: EdU incorporation cell proliferation assay, 24 h; assay type: cell-based, human; settings: for % Inhibition ± SE of cell proliferation: 24 h at EC50, normalized with the control; for % EdU +ve ± SE (S-phase cells): 24 h treatment at EC50 concentration
Experimental: as §1, §2

Hela = assay: EdU incorporation cell proliferation assay, 24 h; assay type: cell-based, human; settings: for % Inhibition ± SE of cell proliferation: 24 h at EC50, normalized with the control; for % EdU +ve ± SE (S-phase cells): 24 h treatment at EC50 concentration
Experimental: as §1, §2

MDA-MB 231 [4] = assay: ATP assay under 1% (v/v) O2 versus 20% (v/v) O2, 72 h; assay type: cell-based, human; settings: 1% (v/v) O2 vs 20% (v/v) O2
Experimental: The effects of drugs on cancer cell lines are usually tested under atmospheric conditions (20% (v/v) O2). However, the O2 content in tissues (normoxia) and solid tumors (hypoxia) is ≤ 5% (v/v). In some tumors (i.e., pancreatic tumors) the % O2 is even ≤ 1% (v/v). This affects cell metabolism and signaling pathways which depend on the hypoxia-induced Factor 1A (HIF1A) and it could affect the activity of certain drugs. […] The effects of these three OOPs were tested on the MDA-MB 231, SK-BR-3 and MCF-7 breast cancer and on the AGS stomach cancer cell lines.
Figure 6 Effect of O2 concentration on the antiproliferative/cytotoxic effect of OOPs. […] Cell viability was determined on (A) AGS, (B) MDA-MB 231, (C) MCF-7 and (D) SK-BR-3 cell lines using ATP-based luminescence assay. The results presented are from two independent experiments performed in triplicate. Bar graphs represent the mean cell count ± SE in each treatment group normalized to the control group (i.e., cells treated only with 0.2% (v/v) DMSO). * p < 0.05; ** p ≤ 0.01; *** p ≤ 0.001 (t-test) comparing the two different conditions.

MCF-7 = assay: EdU incorporation cell proliferation assay, 24 h; assay type: cell-based, human; settings: for % EdU +ve ± SE (S-phase cells): 24 h treatment at EC50 concentration
Experimental: For this purpose, ten cancer cell lines (i.e., MDA-MB 231, SK-BR-3, MCF-7, A2058, SK-MEL-28, AGS, HepG-2, PANC-1, H1299 and Hela) originating from breast, melanoma, stomach, hepatic, pancreatic, lung and cervical tumors were analyzed in parallel with control samples (i.e., the same cells treated only with 0.2% (v/v) DMSO). […] Subsequently, the treated cells were allowed to incorporate 5-ethynyl-2′-deoxyuridine (EdU) into replicating DNA according to the protocol described in detail in the Experimental Section. […] In this study, after EdU incorporation, the nuclei of the entire cell population were stained with Hoechst and imaged by confocal microscopy (Experimental Section). EdU-positive nuclei, marked by green FL, as well as the total number of nuclei, marked by blue FL, were enumerated by applying the Icy image analysis algorithm on the digital images acquired by confocal microscopy.

H1299 = assay: EdU incorporation cell proliferation assay, 24 h; assay type: cell-based, human; settings: for % Inhibition ± SE of cell proliferation: 24 h at EC50, normalized with the control; for % EdU +ve ± SE (S-phase cells): 24 h treatment at EC50 concentration
Experimental: as §1, §2

HaCaT cells = test system: HaCaT cells; design: method as in PMID 27878290, PMID 35630786; settings: cited from earlier work

Compound	% Inhibition ± SE of cell proliferation (PANC-1) [%]	% EdU +ve ± SE (S-phase cells) (PANC-1) [%]	% Inhibition ± SE of cell proliferation (MDA-MB 231 [2]) [%]	% EdU +ve ± SE (S-phase cells) (MDA-MB 231 [2]) [%]	% Inhibition ± SE of cell proliferation (SK-BR-3 [3]) [%]	% EdU +ve ± SE (S-phase cells) (SK-BR-3 [3]) [%]	% Inhibition ± SE of cell proliferation (HepG-2) [%]	% EdU +ve ± SE (S-phase cells) (HepG-2) [%]	% Inhibition ± SE of cell proliferation (AGS)	% EdU +ve ± SE (S-phase cells) (AGS)	% Inhibition ± SE of cell proliferation (SK-MEL-28)	% EdU +ve ± SE (S-phase cells) (SK-MEL-28)	% Inhibition ± SE of cell proliferation (Hela) [%]	% EdU +ve ± SE (S-phase cells) (Hela) [%]	bioactivity under hypoxia versus atmospheric O2 (MDA-MB 231 [4])	% EdU +ve ± SE (S-phase cells) (MCF-7) [%]	% Inhibition ± SE of cell proliferation (H1299) [%]	% EdU +ve ± SE (S-phase cells) (H1299) [%]	sensitivity of cells to treatment (HaCaT cells)	further results
ligstroside aglycone [4a,b]	23.4 ± 2.7	22.1 ± 7.2	8.2 ± 1.8	33.0 ± 2.8	4.8 ± 3.1	18.8 ± 1.3	27.0 ± 1.1	12.0 ± 2.0	31.6 ± 2.6%	14.0 ± 0.5%	4.7 ± 4.6 ^a %	20.8 ± 5.1 ^a %	14.1 ± 6.3	31.2 ± 4.9	more resistant					EC50 (SK-BR-3 [1]; 5 day treatment, read-out: EC50): 26 ± 6 µM
COC(=O)C1=COC(C)[C@@H](C=O)[C@@H]1CC(=O)OCCc1ccc(O)c(O)c1 (mixture of isomers) [3a,b, oleuropein aglycone]	23.6 ± 0.8	21.9 ± 5.3	21.5 ± 2.1	19.7 ± 3.1	16.9 ± 1.7	6.6 ± 3.5	28.4 ± 0.1	10.6 ± 3.1	28.9 ± 1.5 ^a %	18.4 ± 1.5 ^a %	24.7 ± 0.7 ^a %	0.7 ± 0.3 ^a %	24.3 ± 2.1	20.9 ± 3.5	more resistant	21.1 ± 2.0	29.1 ± 6.5	31.9 ± 5.9		% Inhibition ± SE of cell proliferation (MCF-7; 24 h at EC50, normalized with the control): 19.3 ± 0.5%; EC50 (SK-BR-3 [1]; five days of treatment, ref Menendez et al. (2007) 17, read-out: concentration reducing cell viability by 50%): 47 µM
C/C=C(/C=O)[C@@H](CC=O)CC(=O)OCCc1ccc(O)c(O)c1 [compound 2, oleacein]		37.6 ± 7.1	15.7 ± 2.4	25.5 ± 4.1	16.2 ± 2.4	7.4 ± 0.7			31.0 ± 3.5%	14.7 ± 0.4%	20.3 ± 4.0%	1.8 ± 0.4%	23.6 ± 7.9	21.7 ± 6.5			47.8 ± 4.1	13.2 ± 3.5	resistant	
C/C=C(/C=O)[C@@H](CC=O)CC(=O)OCCc1ccc(O)cc1 [compound 1, oleocanthal]		23.6 ± 5.8		29.1 ± 2.3		9.5 ± 3.9		26.4 ± 1.5		16.2 ± 4.4 ^a %		15.0 ± 4.8 ^a %				21.6 ± 4.0		14.0 ± 1.9	resistant	EC50 (SK-BR-3 [1]; 48 h treatment in HGF- and EGF-supplemented media, ref Siddique et al. (2019) 76, read-out: EC50): 27.3 µM
